{
  "source": "patent US11492359B2",
  "about": "“Near-infrared nerve-sparing fluorophores” (OREGON HEALTH & SCIENCE UNIVERSITY, priority 2018, dated 2022)",
  "key": {"[1]": {"conditions": "reported nerve-specific fluorophores; cited from earlier work"}, "[2]": {"test_system": "mouse brachial plexus nerves", "experiment": "Nerve imaging at depth under muscle tissue", "type": "in vivo", "procedure": "Nerve imaging at depth studies using a model Oxazine derivative. Oxazine 4 and LGW01-08 were used to stain mouse brachial plexus nerves using both direct and systemic administration methods using the same dose and administration methods previously described. The ability to image the brachial plexus nerve at depth was assessed under varying thicknesses of mouse muscle tissue. Muscle tissue was resected from the peritoneal muscle layer and measured for thickness. One and two layers of resected peritoneal muscle tissue was placed over the stained nerves, providing one and two mm thick homogenous tissue through which the stained nerve tissue was imaged. The same muscle tissue was used to cover the stained nerves from both fluorophores with care taken to orient the muscle in the same way to ensure equivalent comparison. The imaging system configuration was changed to reflect the 700 nm channel in clinically relevant FGS systems (Tummers et al., Eur J Surg Oncol 40, 850-858 (2014); Troyan et al., Ann Surg Oncol 16, 2943-2952 (2009); Ashitate et al., The Journal of surgical research 176, 7-13 (2012); Verbeek et al., The Journal of urology 190, 574-579 (2013); Hillary et al., Langenbecks Arch Surg 403, 111-118 (2018); and Mery et al., Oncotarget 8, 109559-109574 (2017). For fluorescence excitation, the PhotoFluor II was filtered with a 650±22.5 nm bandpass excitation filter. The resulting fluorescence was collected with a 720±30 nm bandpass emission filter for image collection. Camera exposure times ranged from 0.025-4 s for fluorescence image collection.\nImage analysis of intraoperative nerve contrast. Custom written MatLab code was used to analyze the tissue specific fluorescence where regions of interest (ROIs) were selected on the nerve, muscle and adipose tissue using the white light images, but blinded to the fluorescence images. These ROIs were then analyzed on the co-registered, matched fluorescence images permitting assessment of the mean tissue intensities as well as the nerve to muscle (N/M) and nerve to adipose (N/A) ratios. Fluorescence intensity measurements were divided by the exposure time to obtain normalized intensity per second measurements. Mean nerve to background tissue ratios (N/M and N/A) were calculated for each Oxazine derivative. For nerve imaging at depth image analysis, fluorescent line profiles and 3-D intensity topographical plots were generated in ImageJ using the plot profile and surface plot functions, respectively. The line profiles were background and exposure time corrected by dividing by the exposure time of each image and subtracting the average intensity of background pixels from the entire line profile. […]"}, "nerve and muscle tissue": {"test_system": "nerve and muscle tissue", "experiment": "Ex vivo tissue staining nerve-specificity screening", "text": "Oxazine derivative library nerve-specificity screening. All 64 Oxazine derivatives were screened for nerve specificity using a previously described ex vivo tissue staining assay (Gibbs, S. L., et al., PloS one 8, e73493 (2013)). Ex vivo nerve and muscle tissue fluorescence intensities varied, with many compounds showing minimal nerve or muscle tissue fluorescence above control autofluorescence following Oxazine derivative staining. […] All Oxazine derivatives were further screened for nerve-specificity in vivo using both direct and systemic administration strategies. The direct administration strategy enabled quantification of nerve-specificity and contrast following fluorophore contact with the nerves and surrounding tissues without the requirement of BNB penetration, providing the most similar comparison to ex vivo nerve-specificity screening. The systemic administration screening studies required not only nerve specificity, but also adequate biodistribution and BNB penetration to generate SBR for visualization."}, "[3]": {"experiment": "UV-Vis absorption and fluorescence spectroscopy of the Oxazine library", "type": "physicochemical", "in_short": "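Absorbance measured at room temperature in 1-cm quartz cuvette, reference corrected; extinction coefficient from Beer's Law plots of absorbance vs concentration. Fluorescence spectra corrected for PMT response; relative quantum yields averaged over multiple measurements against Oxazine 1, Oxazine 170 and Rhodamine 101 references.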"}},
  "data": [
    {"smiles": "CCN=c1cc2oc3cc(NCC)c(C)cc3nc-2cc1C.[O-][Cl+3]([O-])([O-])O", "note": "[OX-4, reference compound]", "values": [
      {"measurement": "emission wavelength maximum", "setting": "[1]", "result": 635, "unit": "nm"},
      {"measurement": "width of smallest nerve branches distinguished under muscle tissue", "setting": "[2]; direct administration, under 1 mm of muscle tissue", "result": "did not possess the ability to resolve smaller branches"},
      {"measurement": "thickness of muscle tissue under which nerve tissue could be identified", "setting": "[2]; following both systemic and direct administration, 700 nm channel filters", "result": 1, "unit": "mm"},
      {"measurement": "ex vivo nerve specificity (N/M SBR vs unstained control group)", "setting": "nerve and muscle tissue", "result": "lacked nerve-specificity ex vivo"},
      {"measurement": "Max Abs", "setting": "[3]", "result": 618, "unit": "nm"},
      {"measurement": "Max Em", "setting": "[3]", "result": 634, "unit": "nm"},
      {"measurement": "Max Ex", "setting": "[3]", "result": 620, "unit": "nm"},
      {"measurement": "Extinction coefficient", "setting": "[3]; Beer's Law plots", "result": 77156, "unit": "M⁻¹ cm⁻¹"},
      {"measurement": "Quantum yield", "setting": "[3]; relative, references Oxazine 1, Oxazine 170, Rhodamine 101", "result": 38.37, "unit": "%"}
    ]}
  ]
}
